US6569904B1, “Agent for lowering endothelin levels” (Orion Corporation, priority 1998, dated 2003)

What was measured:
Assay type in all cases: in vivo, postmenopausal breast cancer patients
endothelin-1 (ET-1) = test: Effect on endothelin-1 level in plasma of patients treated orally for one year; conditions: for Plasma level of endothelin-1, at 6 months: at 6 months of oral treatment (toremifene 40 mg/d, tamoxifen 20 mg/d, estradiol valerate 2 mg/d); for Plasma level of endothelin-1, at 6 months / Plasma level of endothelin-1, at 12 months / Plasma level of endothelin-1, before treatment: mean±SE; for Plasma level of endothelin-1, at 12 months: at 12 months of oral treatment (toremifene 40 mg/d, tamoxifen 20 mg/d, estradiol valerate 2 mg/d); for Plasma level of endothelin-1, before treatment: baseline before treatment, breast cancer patients; for Effect on endothelin-1 level in patients during the treatment (in words): oral treatment for one year
Method: Effect of toremifene on endothelin-1 level in plasma
(§1) Postmenopausal breast cancer patients were treated with 40 mg/d toremifene (Fareston™) (n=19), 20 mg/d tamoxifen (Tadex™) (n=25) or 2 mg/d estradiol valerate (Progynova™)(n=14) orally for one year. The 44 patients of the antiestrogen groups had been operated on breast cancer 6-8 weeks before the trial. Plasma samples (10 ml) were collected before and at 6 and 12 months of each regimen, and plasma levels of endothelin-1 (ET-1) and nitrite/nitrate (NOx) were measured by established methods. The data (presented as mean±SE) were analyzed by two-way analysis of variance (ANOVA) for repeated measures. When differences were indicated by ANOVA, their significances at individual timepoints were calculated by means of a t-test for independent means (between-groups comparison) or a t-test for dependent means (comparison to baseline within a single group). For determination of correlation between two variables, the Pearsson coefficient was calculated.

nitrite/nitrate (NOx) = test: Plasma nitrite/nitrate (NOx) level in patients treated orally for one year; conditions: mean±SE; for Plasma level of nitrite/nitrate, at 6 months: at 6 months of oral treatment; for Plasma level of nitrite/nitrate, at 12 months: at 12 months of oral treatment; for Plasma level of nitrite/nitrate, before treatment: baseline before treatment, breast cancer patients
Method: as §1

[1] = Occurrence of thromboses and cerebrovascular accidents in three clinical adjuvant trials; conditions: for Cerebrovascular accidents (number of occurrences) / Deep vein thromboses (number of occurrences): oral toremifene 40 mg/d (1120 patients) vs oral tamoxifen 20 mg/day (1110 patients) for 3 years, serious events
Method: Occurrence of thromboses and cerebrovascular accidents
In three clinical adjuvant trials effects of oral toremifene 40 mg/d was compared to oral tamoxifen 20 mg/day for 3 years in postmenopausal breast cancer patients. The occurrence of serious deep vein thromboses and serious cerebrovascular accidents in toremifen and tamoxifen groups are summarized in Table 2.

SMILES | Plasma level of endothelin-1, at 6 months (endothelin-1 (ET-1)) | Plasma level of endothelin-1, at 12 months (endothelin-1 (ET-1)) | Plasma level of endothelin-1, before treatment (endothelin-1 (ET-1)) | Plasma level of nitrite/nitrate, at 6 months (nitrite/nitrate (NOx)) | Plasma level of nitrite/nitrate, at 12 months (nitrite/nitrate (NOx)) | Plasma level of nitrite/nitrate, before treatment (nitrite/nitrate (NOx)) | Effect on endothelin-1 level in patients during the treatment (in words) (endothelin-1 (ET-1)) | Cerebrovascular accidents (number of occurrences) [1] | Deep vein thromboses (number of occurrences) [1] | Vascular complications (deep vein thrombosis and cerebrovascular events), comparison in words ([1]; tamoxifen treated patients compared with toremifene treated patients)
CCCCC(=O)O[C@H]1CC[C@H]2[C@@H]3CCc4cc(O)ccc4[C@H]3CC[C@]12C [Estrogen, estradiol valerate] | 2.7 ± 0.2 ng/L | 2.7 ± 0.2 ng/L | 2.8 ± 0.2 ng/L | 21.5 ± 3.2 µmol/L | 18.5 ± 2.7 µmol/L | 25.8 ± 3.7 µmol/L |  |  |  | 
CC/C(=C(\c1ccccc1)c1ccc(OCCN(C)C)cc1)c1ccccc1 [Tamoxifen, tamoxifen] | 3.5 ± 0.2 ng/L | 3.2 ± 0.2 ng/L | 3.5 ± 0.2 ng/L | 22.8 ± 4.0 µmol/L | 20.4 ± 2.5 µmol/L | 20.6 ± 2.3 µmol/L | no effect | 14 | 13 | clearly more vascular complications
CN(C)CCOc1ccc(/C(=C(/CCCl)c2ccccc2)c2ccccc2)cc1 [Toremifene, toremifene] | 2.6 ± 0.2 ng/L | 2.6 ± 0.2 ng/L | 3.0 ± 0.2 ng/L | 21.0 ± 2.5 µmol/L | 21.6 ± 3.1 µmol/L | 23.4 ± 4.0 µmol/L | significantly lowered endothelin-1 level | 2 | 7 | 
